Experimental data taken from US10604476B2, “Fluorinated amide derivatives and their uses as therapeutic agents” (Trillium Therapeutics Inc., priority 2015, dated 2020).

What was measured:
gross motor function = assay: Fixed speed rotorod, rat (gross motor function); settings: Sprague-Dawley, in vivo, po
Protocol: On the test day following a defined drug pretreatment period, rats received a maximal electroshock (150 mA, 0.2 s duration, 60 Hz) via corneal electrodes. Protection was defined as absence of a full tonic seizure within 10 s of stimulus delivery. Twenty minutes before the MES procedure, the animals were tested on a fixed speed rotorod (best score from 3 trials at 8 r.p.m, trial duration=60 s) to give an early assessment of drug effect on gross motor function.

6 Hz psychomotor seizure = assay: Mouse 6 Hz model; assay type: in vivo; settings: mice, ip, 0.5 hour, 32 mA
Protocol: Male, Sprague-Dawley rats and CD-1 mice were used for all studies. All animals were allowed ad-lib access to food and water except during experiment. Animals were housed within an animal vivarium maintained under a 12 h light:dark cycle (lights on: 07:00 h), and all experiments were conducted in the animals light phase. For all experiments, animals were habituated to the vivarium for a minimum of 72 h before experimentation. The experimental procedures used in the present investigation were conducted under the Association for Assessment and Accreditation of Laboratory Animal Care (AAALAC) and the Canadian Council on Animal Care (CCAC) guidelines. All compounds were sonicated in 5% Tween 80® in saline or methylcellulose 0.5% (wgt/vol), using MC and sterile water and injected in a dose volume of 5 ml/kg or 10 ml/kg (rat), and 10 ml/kg (mouse). Drugs were administered by either the oral, intraperitoneal or intravenous route. […] Preliminary experiments established that these stimulus parameters elicited a psychomotor seizure, defined as the expression of at least one of the following behaviors: stun/immobility, forelimb clonus, straub tail, vibrissae tremor, lateral head movement in >95% of control animals. Protection was defined as complete absence of all the above behaviors within 20 s of stimulus delivery. The effective dose of compound necessary to protect against psychomotor seizures to 50% of controls (i.e. ED50) was determined by curve fitting program (Prism v.4.02).

[1] = test system: fully kindled (stage 5) seizures, hippocampal kindled rat; assay: Hippocampal kindled rat model (focal seizures); assay type: in vivo; settings: for suppression of fully kindled (stage 5) seizures compared to vehicle controls: <100 mg/kg i.p.
Excerpt: Hippocampal Kindled Rat Test is designed to quantify the anti-convulsant effects of a test compound in the kindled rat model. Rats treated by i.p. injection.
The Kindled Rat is a model of temporal lobe epilepsy, which is the most common and drug-resistant type of adult focal epilepsy (Morimoto et al., 2004). […] This acquired hyper-responsiveness is called kindling and results not only in increased seizure responses but also in an elongation of the after-discharge duration seen on an EEC recording.
Electrodes are implanted into the hippocampus of anesthetized rats, which are then allowed to recover for one week. Following the rapid kindling protocol (Lothman and Williamson, Brain Res 1994, 649:71-84), the rats are stimulated with 200 jiA for 10 s, 50 Hz, every 30 minutes for six hours on alternate days until they are fully kindled (4-5 stimulus days). After one week of rest, the animals are given the same electrical stimulus which serves as a baseline. The animals are pretreated with the test compound (generally via i.p. injection) and then tested at various intervals. At each time point, the behavioral seizure score (BSS) and after-discharge duration (ADD) is recorded. The BSS's are scored according to the following criteria (Racine, Electroencephalogr Clin Neurophysiol 1972, 32:281-94): Stage 1—mouth and facial clonus; Stage 2—stage 1 plus head nodding; Stage 3—stage 2 plus forelimb clonus; Stage 4—stage 3 plus rearing; and Stage 5—stage 4 plus repeated rearing and falling.
The after discharge threshold (ADT) can also be measured in the kindled rat. The ADT is defined as the lowest current at which an after discharge of at least 4 s is elicited. […] The initial stimulation is conducted at an intensity of 20 uA with 10 uA increments every 1-2 min until an after discharge is elicited. Fifteen minutes after the pre-drug threshold determination, a single dose of the test substance is administered to two animals in a volume of 0.04 ml/10 g body weight. In this way the animals serves as its own control. The individual rat ADT is then determined at varying times (i.e., 0.25, 1, 2, and 4 hr) after drug administration.
Ability of a compound to block behavioral seizures and/or decrease the afterdischarge duration (ADD) in a hippocampal kindled rat model. The hippocampal kindled rat provides an experimental model of focal seizures that become secondarily generalized. This rat model is useful for not only identifying compounds effective against partial seizures, but also allows for the investigation of complex brain networks that may contribute to seizure spread and generalization from a focus. Moreover, of the various electrical kindling paradigms described in the literature, the hippocampal kindling model offers several distinct advantages for the routine screening and evaluation of potential anticonvulsant compounds. First, this model provides a temporal framework for assessing drug efficacy in a focal seizure model. Specifically, the refractory period of individual animals is sufficiently short to permit repeated stimulations over a short time span. Second, this kindled rat model can be employed to assess the ability of an investigational compound to block fully kindled seizures evoked by an electrical stimulus. Finally, the hippocampal kindled rat model can also be used to assess the ability of an investigational compound to elevate threshold to focal firing modulation by an investigational drug. Therefore, compounds with a subtle effect on focal seizure activity in the kindled rat are not likely to be overlooked in the threshold test, thereby making the hippocampal kindled rat a useful screen at the ETSP.
Animals are first surgically prepared for kindling acquisition. Adult, male Sprague-Dawley rats (275-300 g) are surgically implanted with bipolar electrodes. Briefly, a bipolar electrode is stereoaxically implanted into the ventral hippocampus (AP −3.6, ML −4.9, VD −5.0 from dura, incisor bar +5.0) under ketamine-xylazine anesthesia. […]

SMILES	ED50 at 0.5 hour (gross motor function) [mg/kg]	ED50 (6 Hz psychomotor seizure) [mg/kg]	Average Seizure ([1]; 20 mg/kg)	N/F, number of animals active over the number tested ([1]; 20 mg/kg)	Average Seizure ([1]; 40 mg/kg)	N/F, number of animals active over the number tested ([1]; 40 mg/kg)	Average Seizure ([1]; 80 mg/kg)	N/F, number of animals active over the number tested ([1]; 80 mg/kg)	suppression of fully kindled (stage 5) seizures compared to vehicle controls [1]	EC50, reduction of seizure score (seizure severity) ([1]; hippocampal kindled rat, Example 8) [mg/kg]
C[C@@H](Oc1cc(Cl)cc(C(F)(F)F)c1)C(N)=O [I(D), (2R)-2-[3-chloro-5-(trifluoromethyl)-phenoxy]propanamide]	> 500	48.5 ± 1	4.9	1/8	2.5	1/8	1	5/8	dose related suppression	49.4 ± 1.47
NC(=O)COc1cc(C(F)(F)F)cc(C(F)(F)F)c1 [I(F), 2-[3,5 bis(trifluoromethyl)-phenoxy]acetamide;]	> 500	38.5 ± 1	–	–	–	–	–	–	dose related suppression	–
